Measured values reported in US20240099998A1, “COMPOSITIONS AND METHODS FOR INDUCING DEFECATION” (priority 2021, published 2024).

Assays:
[1] = system: anesthetized naïve (spinal intact) rats, rectal pressure; assay: Rectal (colorectal) pressure recording via balloon catheter after intrarectal dosing in anesthetized spinal intact rats; type: in vivo, rat
Description: General: In vivo studies were performed in anesthetized, spinally intact rats (N=10). Adult male Sprague Dawley rats (Charles River, 250-300 g) were housed at an AAALAC approved facility in cages (2-3/cage) with free access to water and food in a colony room that was maintained on a 12 hr light/12 hr dark cycle 1-2 weeks before the experiment. Rats were anesthetized with urethane (1.2-1.4 g/kg subcutaneous injection). Surgical procedures were then performed with the addition of isoflurane anesthesia (0.05-1.5% in O2) as the full anesthetic effect of urethane takes about 1-2 hrs.
A catheter filled with heparinized saline (30 unit/ml) was inserted into the carotid artery and connected to a pressure transducer for measurement of blood pressure and heart rate. A catheter was inserted into the jugular vein for intravenous (i.v.) administration of drugs.
Colorectal Contractility: Colorectal pressures were measured via a latex balloon catheter (length 2-3 cm) inserted (˜3-4 cm) into the distal colorectal region. The catheter was connected to a pressure monitoring system. The pressure in the balloon catheter was slowly increase to 10-15 mmHg by infusing saline (0.2-0.5 ml total volume) and this pressure was maintained throughout the study. This allowed drug induced changes in colorectal pressure to be monitored. Parameters measured include peak colorectal pressure response, duration of time above baseline activity (in the 1st 5 min after drug administration), area under the curve (measured during the 1st 5 min after drug administration) and the number of contractile events after vehicle and drug administration.
Dosing: Intrarectal TRPV1 agonists were administered in a dose range of 0.01-2% wt/vol. Nonivamide, OEA, OLDA and capsaicin were dissolved in 95% ethanol at 20-100 mg/mL and then diluted to 0.01-2% with the vehicle (Tween-80:95% ethanol:saline in a ratio of 10:10:80) and administered intrarectally as a solution using a small gauge tube, or a solution soaked cotton wool plug, to mimic a suppository-like dosage form.
Methods: The TRPV1 receptor agonist nonivamide was administered to anesthetized spinal intact male rats (N=6) instrumented for rectal pressure recording via a balloon catheter inserted into the rectum 3-4 cm from the anus. A 0.1% solution (0.2 mL of a 1 mg/ml solution in Tween-80:ethanol:saline (ratio 10:10:80)) of nonivamide was administered via a 20 gauge feeding tube that was inserted ˜2 cm into the rectum. For comparison, vehicle (Tween-80:ethanol:saline in a ratio of 10:10:80) was administered using the same techniques.
Methods: The TRPV1 receptor agonist nonivamide was administered to anesthetized spinal intact male rats instrumented for rectal pressure recording via a balloon catheter inserted into the rectum 3-4 cm from the anus. A 1% solution (0.2 mL of a 10 mg/ml solution in Tween-80:ethanol:saline (ratio 10:10:80)) of nonivamide was administered via a 20 gauge feeding tube that was inserted 2-3 cm into the rectum.
Methods: Nonivamide was administered to a naive anesthetized male rat instrumented for rectal pressure recording via a balloon catheter inserted into the rectum 2-4 cm from the anus. To mimic a suppository dosage form, nonivamide (1%) was administered via a fluid-soaked small cotton wool plug. The cotton wool plug was placed into the anal canal at the distal rectum.
Methods: OAE (N=4) was administered to anesthetized naïve male rats (N=5) instrumented for rectal pressure recording via a balloon catheter inserted into the rectum 3-4 cm from the anus. OEA was administered as 0.01-0.2% solution (0.2 mL of a […] solution in Tween-80:95% ethanol:saline (ratio 10:10:80)) via a small cotton wool plug soaked in 0.2 mL of solution, to mimic a suppository dosage form, that was inserted into the rectum. For comparison, vehicle was administered to all rats using the same techniques. […]

[2] = system: anesthetized acute T9-transected SCI rat, rectal pressure; assay: Rectal pressure recording in anesthetized acute spinal cord injured (SCI) rat; type: in vivo; conditions: cotton ball suppository soaked in 50 uL of 0.2% solution, acute T9-transected SCI female rat
Description: For the acute SCI model, animals were anesthetized with urethane (1.0-1.4 g/kg subcutaneous injection), the skin and muscle on the dorsal side at the level of the thoracic vertebrae were incised, and the spinal cord was carefully exposed by a laminectomy and transected at T8-T10 spinal level. Gelfoam^R was placed at the incision site and the muscle and skin overlying the vertebrae were closed with wound clips. The spinal cord was transected at least 60 min before starting the experimental protocol.
For all rectal contractility studies, animals were anesthetized with urethane (1.0-1.4 g/kg subcutaneous injection). […]
Rectal Contractility: Rectal pressures were measured via a latex balloon catheter (length 1.5-4 cm) inserted (˜4 cm) into the distal rectal region. […] Parameters measured included peak rectal pressure response, duration of time above baseline activity (in the 1st 5 min after drug administration), area under the curve (measured during the 1st 5 min after drug administration) and the number of contractile events after vehicle and drug administration.
Methods: Capsaicin was administered to 2 anesthetized female rats instrumented for rectal pressure recording via a balloon catheter inserted into the rectum 2-4 cm from the anus. […] Top and bottom traces in FIG. 9 were recorded from individual female rats.

conscious dogs, colon = conditions: intracolonic administration; cited from earlier work
[3] = system: rectal afferent terminals; conditions: human subjects; cited from earlier work
[4] = system: conscious spinal intact rats, defecation; assay: Defecation in conscious rats monitored in metabolism cages after intrarectal dosing; type: in vivo, rat
Description: Defecation in awake animals was monitored in metabolism cages. Animals were habituated to handling and the metabolism cages on 2-4 occasions prior to dosing and were then randomized to a treatment arm. Rats were weighed and placed into metabolism cages for 10 min prior to intrarectal administration of vehicle or TRPV1 agonist. The number of fecal pellets and timing of events were recorded by trained personnel that were blinded to treatment. Fecal weight was weighed at 20 min post dosing.
Defecation in conscious rats was monitored in metabolism cages. Rats were habituated to handling and the metabolism cages on 2-4 occasions before dosing, then randomized to the treatment arm. Rats were weighed and placed into metabolism cages for 10 min prior to receiving an intrarectal dose of vehicle or capsaicin. Since manual stimulation during intrarectal dosing in conscious rats can induce defecation, palpation of the distal rectum was performed to remove any fecal pellets located in the region of the anal sphincter. […] Once the anal sphincter had ceased contracting/relaxing (15-90 s) a fine catheter (22 G soft/flexible blunt tip catheter) was used to dose the vehicle or capsaicin, as this method produced little manual stimulation. Capsaicin was prepared as a 0.01, 0.1 or 1% solution (0.1, 1 or 10 mg/ml in tween-80/ethanol/saline (ratio of 10/10/80) or vehicle. Dose volumes were 0.1 mL and administered via the catheter inserted ˜1 inch through the anus into the rectum. The number of fecal pellets and timing of events were recorded by trained personnel blinded to the treatment. Fecal weight was recorded at 20 min post dosing.

[5] = 0.01-0.2% solution, cotton wool plug soaked in 0.2 mL, intrarectal
[6] = cotton wool plug soaked in 0.2 mL of 0.2% solution
[7] = 0.1% solution, 0.2 mL intrarectal
[8] = 1% solution, 0.2 mL intrarectal
[9] = 0.2%, cotton wool plug soaked in 0.2 mL, N=1
[10] = 0.2% solution, 0.05-0.32 mL intrarectal
[11] = cotton ball suppository soaked in 50 uL of 0.2% solution, spinal intact naïve female rat
[12] = cotton wool plug (1% in FIG. 7A), intrarectal, N=3
[13] = intrarectal solution, conscious rats

**Q.** For `CCCCCCCC/C=C\CCCCCCCC(=O)NCCO` [OEA, Oleoylethanolamide], which “duration of rectal pressure increase” value [1, 5] is on record?
**A.** 5 to 10 min

**Q.** And the “onset time of rectal pressure increase” value [1, 5]?
**A.** 0.5 to 2 min

**Q.** And the “defecation in anesthetized rat (FIG. 5)” value [1, 6]?
**A.** defecation of fecal pellets

**Q.** What about the “rectal response: expulsion of balloon catheter” value (“rectal response: expulsion” for short) [1, 6] of the same compound?
**A.** sufficient to expel the balloon catheter

**Q.** With `CCCCCCCCC(=O)NCc1ccc(O)c(OC)c1` [Nonivamide] as the compound, how does the “duration of rectal pressure increase” value [1, 7] read?
**A.** 5 min

**Q.** And the “onset time of rectal pressure increase” value [1, 7]?
**A.** 1 to 2 min

**Q.** What about the “rats with transient rectal pressure increase” value ([1]; 0.1% solution, 0.2 mL intrarectal via feeding tube, male rats) of the same compound?
**A.** 6 of 6

**Q.** What about the “duration of rectal pressure increase” value [1, 8] of the same compound?
**A.** 5 to 10 min

**Q.** What about the “onset time of rectal pressure increase” value [1, 8] of the same compound?
**A.** 1 to 2 min

**Q.** What about the “rectal response: expulsion” value ([1]; cotton wool plug soaked in 0.2 mL of 1% solution) of the same compound?
**A.** sufficient to expel the balloon catheter

**Q.** And the “onset of increase in rectal pressure” value ([1]; cotton wool plug soaked in 0.2 mL of 1% solution, 1 male rat)?
**A.** ≤ 1 min

**Q.** For `CCCCCCCC/C=C\CCCCCCCC(=O)NCCc1ccc(O)c(O)c1` [OLDA, N-Oleoyldopamine], which “duration of rectal pressure increase” value [1, 9] is on record?
**A.** 5 min

**Q.** What about the “onset time of rectal pressure increase” value [1, 9] of the same compound?
**A.** 0.5 to 2 min

**Q.** What about the “rectal response: expulsion” value [1, 6] of the same compound?
**A.** sufficient to expel the balloon catheter

**Q.** For `COc1cc(CNC(=O)CCCC/C=C/C(C)C)ccc1O` [Capsaicin], which “duration of rectal pressure increase” value [2] is on record?
**A.** < 5 min

**Q.** And the “onset of rectal pressure increase” value [2]?
**A.** < 2 min

**Q.** What about the “effect on colon and defecation” value (conscious dogs, colon) of the same compound?
**A.** initiate defecation

**Q.** What about the “duration of rectal pressure increase” value [1, 10] of the same compound?
**A.** 5 min

**Q.** What about the “onset time of rectal pressure increase” value [1, 10] of the same compound?
**A.** 1 to 2 min

**Q.** What about the “rats with transient rectal pressure increase” value ([1]; 0.2% solution, 0.05-0.32 mL intrarectal via PE50 tube, 4 males and 1 female) of the same compound?
**A.** 5 of 5

**Q.** What about the peak colorectal pressure ([1]; 1% soaked cotton wool plug, FIG. 7A, example of one male rat) of the same compound?
**A.** ~40 mmHg

**Q.** What about the “duration of rectal pressure increase” value [1, 11] of the same compound?
**A.** < 5 min

**Q.** And the “onset of rectal pressure increase” value [1, 11]?
**A.** < 2 min

**Q.** What about the “duration of increase in colorectal pressure” value [1, 12] of the same compound?
**A.** < 5 min

**Q.** What about the “onset of increase in colorectal pressure” value [1, 12] of the same compound?
**A.** < 1 min

**Q.** And the “reported sensations after intrarectal administration” value [3]?
**A.** an urge to defecate

**Q.** And the “number of fecal pellets expelled compared to vehicle” value ([4]; 1% solution, 0.1 mL intrarectal, 10 min after dosing, N=6, p<0.05)?
**A.** significantly increased

**Q.** What about the “total weight of fecal pellets expelled compared to vehicle” value ([4]; 1% solution, 0.1 mL intrarectal, 20 min after dosing, N=6, p<0.05) of the same compound?
**A.** significantly increased

**Q.** What about the “time to completion of defecation” value [4, 13] of the same compound?
**A.** ≤ 10 min

**Q.** And the time to defecation [4, 13]?
**A.** ≤ 5 min
